Experimental data from PubChem BioAssay (NCI).
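The concentration for 50% growth inhibition is given as GI50. TGI marks complete inhibition of growth.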

What was measured:
Experiment in all cases: DTP human tumour cell line panel, 384-well format
[1] = test system: COLO 205 colon
[2] = test system: HCT-15 colon
[3] = test system: IGROV1 ovarian
[4] = test system: KM12 colon
[5] = test system: M14 melanoma
[6] = test system: MDA-MB-435 melanoma
[7] = test system: MDA-MB-468 breast
[8] = test system: NCI-H522 lung
[9] = test system: OVCAR-3 ovarian
[10] = test system: RXF 393 renal
[11] = test system: SF-268 CNS
[12] = test system: SNB-19 CNS
[13] = test system: UO-31 renal

SMILES: COC1(C(=O)N2Cc3nc(Cl)nc(N[C@H](C)c4cc(N)cc(C(F)(F)F)c4)c3C2)CCOCC1
- GI50 [1]: 24 µM
- TGI [1]: 56.9 µM
- GI50 [2]: 18.6 µM
- TGI [2]: 38.9 µM
- GI50 [3]: 16.1 µM
- TGI [3]: 33.6 µM
- GI50 [4]: 3.55 µM
- TGI [4]: 22 µM
- GI50 [5]: 17.5 µM
- TGI [5]: 32.3 µM
- GI50 [6]: 17.9 µM
- TGI [6]: 36.9 µM
- GI50 [7]: 8.68 µM
- TGI [7]: 24.8 µM
- GI50 [8]: 12.5 µM
- TGI [8]: 34.4 µM
- GI50 [9]: 13.1 µM
- TGI [9]: 26.2 µM
- GI50 [10]: 13.8 µM
- TGI [10]: 27.4 µM
- GI50 [11]: 17.2 µM
- TGI [11]: 34.8 µM
- GI50 [12]: 19.3 µM
- TGI [12]: > 100 µM
- GI50 [13]: 15.2 µM
- TGI [13]: 29.2 µM
